Patent publication USRE40086E1, “Method for treating bacterial infection with novel 7-substituted-9-substituted amino 6-demethyl-6-deoxytetracyclines” (Wyeth Holdings Corporation, priority 1991, dated 2008)

Columns and labels:
E. coli ATCC 25922 = assay: MIC, agar dilution; format: cell-based; settings: E. coli ATCC 25922; Table IA; unit assumed
E. faecalis 12201 = assay: MIC, agar dilution; format: cell-based; settings: Enterococcus 12201; Table IA; unit assumed
[1] = tested on: S. haemolyticus AVAH 88-3; assay: MIC, agar dilution; format: cell-based; settings: S. hemolyticus AVHAH 88-3; Table IA; unit assumed
[2] = tested on: S. aureus UBMS 90-2 (tetM); assay: MIC, agar dilution; format: cell-based; settings: S. aureus UBMS 90-2 TetM; Table IA; unit assumed
E. coli J3272 Tet sens. = assay: MIC, agar dilution (Table IA); format: cell-based; settings: unit assumed
[3] = tested on: S. aureus IVES 1983 (meth. resistant); assay: MIC, agar dilution; format: cell-based; settings: S. aureus IVES 1983; Table IA; unit assumed
[4] = tested on: S. aureus UBMS 90-1 (tetM); assay: MIC, agar dilution; format: cell-based; settings: S. aureus UBMS 90-1 TetM; Table IA; unit assumed
[5] = tested on: S. aureus ATCC 29213 (Sensitive); assay: MIC, agar dilution; format: cell-based; settings: S. aureus ATCC 29213; Table IA; unit assumed
E. coli UBMS 89-1 (tetM) = assay: MIC, agar dilution; format: cell-based; settings: E. coli UBMS 89-1 TetM; Table IA; unit assumed
S. aureus ROSE (MP) = assay: MIC, agar dilution (Table IA); format: cell-based; settings: unit assumed
E. faecalis ATCC 29212 = assay: MIC, agar dilution; format: cell-based; settings: E. faecalis ATCC 29212; Table IA; unit assumed
E. coli MC4100 TetB = assay: MIC, agar dilution (Table IA); format: cell-based; settings: unit assumed
E. coli #311 (MP) = assay: MIC, agar dilution (Table IA); format: cell-based; settings: unit assumed
E. coli J2175 = assay: MIC, agar dilution (Table IA); format: cell-based; settings: unit assumed
[6] = tested on: Ps. acruginosa ATCC 27853; assay: MIC, agar dilution (Table IA); format: cell-based; settings: unit assumed
[7] = tested on: S. aureus UBMS 88-7 (tetK); assay: MIC, agar dilution; format: cell-based; settings: S. aureus UBMS 88-7 TetK; Table IA; unit assumed
E. coli J3272 TetC = assay: MIC, agar dilution (Table IA); format: cell-based; settings: unit assumed
[8] = tested on: S. aureus Smith (Sensitive); assay: MIC, agar dilution; format: cell-based; settings: S. aureus SMITH (MP); Table IA; unit assumed
E. coli BAJ9003 = assay: MIC, agar dilution (Table IA); format: cell-based; settings: unit assumed
E. coli PRP1 TetA = assay: MIC, agar dilution (Table IA); format: cell-based; settings: unit assumed
E. coli J3272 TetD = assay: MIC, agar dilution (Table IA); format: cell-based; settings: unit assumed
[9] = tested on: S. aureus UBMS 88-4 (Sensitive); assay: MIC, agar dilution; format: cell-based; settings: S. aureus UBMS 88-4; Table IA; unit assumed
E. coli UBMS 90-4 (tetM) = assay: MIC, agar dilution; format: cell-based; settings: E. coli UBMS 90-4 TetM; Table IA; unit assumed
[10] = tested on: X. maltophilia NEMC 87210; assay: MIC, agar dilution (Table IA); format: cell-based; settings: unit assumed
E. coli UBMS 90-5 = assay: MIC, agar dilution (Table IA); format: cell-based; settings: unit assumed
[11] = tested on: E. coli UBMS 89-2 (Sensitive); assay: MIC, agar dilution; format: cell-based; settings: E. coli UBMS 89-2 Tet Sens.; Table IA; unit assumed
S. aureus SMITH (sens) [12] = assay: In vivo antibacterial evaluation, acute lethal infection in mice
Text: In Vivo Antibacterial Evaluation (Table VII)

S. aureus SMITH (sens) [13] = assay: as above; settings: Intraveneous
S. mariescens FDOR 8733 = assay: MIC, agar dilution (Table IA); format: cell-based; settings: unit assumed
[14] = tested on: S. aureus UBMS 90-3 (Sensitive); assay: MIC, agar dilution; format: cell-based; settings: S. aureus UBMS 90-3; Table IA; unit assumed
E. coli UBMS 88-1 (tetB) = assay: MIC, agar dilution; format: cell-based; settings: E. coli UBMS 88-1 TetB; Table IA; unit assumed
[15] = tested on: S. aureus UBMS 88-5 (tetM); assay: MIC, agar dilution; format: cell-based; settings: S. aureus UBMS 88-5 TetM; Table IA; unit assumed
S. aureus NEMC 8769/89-4 = assay: MIC, agar dilution (Table IA); format: cell-based; settings: unit assumed
[16] = tested on: S. aureus IVES 2943 (meth. resistant); assay: MIC, agar dilution; format: cell-based; settings: S. aureus IVES 2943; Table IA; unit assumed

Compound	Antibacterial activity (MIC) (E. coli ATCC 25922)	Antibacterial activity (MIC) (E. faecalis 12201)	Antibacterial activity (MIC) [1]	Antibacterial activity (MIC) [2]	Antibacterial activity (MIC) (E. coli J3272 Tet sens.)	Antibacterial activity (MIC) [3]	Antibacterial activity (MIC) [4]	Antibacterial activity (MIC) [5]	Antibacterial activity (MIC) (E. coli UBMS 89-1 (tetM))	Antibacterial activity (MIC) (S. aureus ROSE (MP))	Antibacterial activity (MIC) (E. faecalis ATCC 29212)	Antibacterial activity (MIC) (E. coli MC4100 TetB)	Antibacterial activity (MIC) (E. coli #311 (MP))	Antibacterial activity (MIC) (E. coli J2175)	Antibacterial activity (MIC) [6]	Antibacterial activity (MIC) [7]	Antibacterial activity (MIC) (E. coli J3272 TetC)	Antibacterial activity (MIC) [8]	Antibacterial activity (MIC) (E. coli BAJ9003)	Antibacterial activity (MIC) (E. coli PRP1 TetA)	other results
CC(C)CNCC(=O)Nc1cc(N(C)C)c2c(c1O)C(=O)C1=C(O)C3(O)C(=O)C(C(N)=O)=C(O)C(N(C)C)C3CC1C2.Cl.Cl (stereo not drawn) [TT, [4S-(4alpha,12aalpha)]-4,7-Bis(dimethylamino)-1,4,4a,5,5a,6,11,12a-octahydro-3,10,12,12a-tetrahydroxy-9-[[[(2-methylpropyl)amino]acetyl]amino)-1,11-dioxo-2-naphthacenecarboxamide dihydrochloride]	0.5 µg/mL	0.25 µg/mL	0.5 µg/mL	0.25 µg/mL	0.5 µg/mL	2 µg/mL	0.25 µg/mL	0.25 µg/mL	0.25 µg/mL	2 µg/mL	0.25 µg/mL	0.5 µg/mL	0.5 µg/mL	0.5 µg/mL	16 µg/mL	2 µg/mL	0.5 µg/mL	0.12 µg/mL	0.06 µg/mL	2 µg/mL	Antibacterial activity (MIC) (E. coli J3272 TetD): 0.12 µg/mL; Antibacterial activity (MIC) [9]: 0.25 µg/mL; Antibacterial activity (MIC) (E. coli UBMS 90-4 (tetM)): 0.5 µg/mL; Antibacterial activity (MIC) [10]: 0.5 µg/mL; Antibacterial activity (MIC) (E. coli UBMS 90-5): 0.5 µg/mL; Antibacterial activity (MIC) [11]: 0.5 µg/mL; ED50 (S. aureus SMITH (sens) [12]; Oral): 8 to 16 mg/kg; ED50 (S. aureus SMITH (sens) [13]): 1 to 2 mg/kg; Antibacterial activity (MIC) (S. mariescens FDOR 8733): 4 µg/mL; Antibacterial activity (MIC) [14]: 0.12 µg/mL; Antibacterial activity (MIC) (E. coli UBMS 88-1 (tetB)): 0.5 µg/mL; Antibacterial activity (MIC) [15]: 0.25 µg/mL; Antibacterial activity (MIC) (S. aureus NEMC 8769/89-4): 0.03 µg/mL; Antibacterial activity (MIC) [16]: 2 µg/mL
CN(C)CC(=O)Nc1cc(N(C)C)c2c(c1O)C(=O)C1=C(O)C3(O)C(=O)C(C(N)=O)=C(O)C(N(C)C)C3CC1C2.O=S(=O)(O)O.O=S(=O)(O)O (stereo not drawn) [JJ, [4S-(4alpha,12aalpha))-4,7-Bis(dimethylamino)-9-([(dimethylamino)acetyl)amino]-1,4,4a,5,5a,6,11,12a-octahydro-3,10,12,12a-tetrahydroxy-1,11-dioxo-2-naphthacenecarboxamide disulfate]	0.25 µg/mL	0.12 µg/mL	0.25 µg/mL	0.25 µg/mL	0.25 µg/mL	2 µg/mL	0.25 µg/mL	0.03 µg/mL	0.25 µg/mL	2 µg/mL	0.12 µg/mL	0.25 µg/mL	0.25 µg/mL	0.25 µg/mL	8 µg/mL	1 µg/mL	1 µg/mL	0.12 µg/mL	0.03 µg/mL	2 µg/mL	Antibacterial activity (MIC) (E. coli J3272 TetD): 0.12 µg/mL; Antibacterial activity (MIC) [9]: 0.25 µg/mL; Antibacterial activity (MIC) (E. coli UBMS 90-4 (tetM)): 0.25 µg/mL; Antibacterial activity (MIC) [10]: 0.5 µg/mL; Antibacterial activity (MIC) (E. coli UBMS 90-5): 0.25 µg/mL; Antibacterial activity (MIC) [11]: 0.25 µg/mL; ED50 (S. aureus SMITH (sens) [12]; Oral): 9.6 mg/kg; ED50 (S. aureus SMITH (sens) [12]; Subcutaneous): 0.66 mg/kg; ED50 (S. aureus SMITH (sens) [13]): 0.61 mg/kg; Antibacterial activity (MIC) (S. mariescens FDOR 8733): 4 µg/mL; Antibacterial activity (MIC) [14]: 0.12 µg/mL; Antibacterial activity (MIC) (E. coli UBMS 88-1 (tetB)): 0.25 µg/mL; Antibacterial activity (MIC) [15]: 0.25 µg/mL; Antibacterial activity (MIC) (S. aureus NEMC 8769/89-4): 0.06 µg/mL; Antibacterial activity (MIC) [16]: 2 µg/mL
